Reference: patent US10973782B2, “Pharmaceutical composition for improving or preventing progression of chronic kidney disease” (Frimline Private Limited, priority 2017, dated 2021)

Tested on: 5/6 Nephrectomy induced chronic kidney disease (CKD)
Test: 5/6 Nephrectomy induced chronic kidney disease in rat
Assay type: in vivo, rat (male Wistar)
Details: 5/6 nephrectomy rats, mean; for Serum Analysis BUN / Serum Analysis Creatinine / Serum Analysis IL-6 / Urine Analysis Glomerular Filtration Rate: daily p.o. treatment for 10 weeks, end of 10th week; for % Decreased Creatinine / % Decreased in BUN / % Decreased in IL-6: serum; for % Decreased Creatinine / % Decreased in BUN / % Decreased in IL-6 / % Increased GFR: daily p.o. 10 weeks; for % Increased GFR: urine analysis
Procedure: Screening effect against 5/6 Nephrectomy induced chronic kidney disease (CKD) of synergistic combination or composition/formulation comprising PEA and other natural ingredients in rat. The following trials were carried out:
54 male Wistar rats (Rat Rattus) (6 per group) were maintained in animal house in a light/dark atmosphere based on a 12 hour cycle having temperature and relative humidity in the range of 25±2° C. and 30-70% respectively. To maintain the appropriate conditions, temperature and relative humidity were recorded three times daily. During complete experiment, animals were supplied with the standard certified rat pellet feed (manufactured by Keval sales corporation, Vadodara) and drinking water treated by the reverse osmosis ad libitum.
In order to evaluate the activity against chronic kidney disease, fifty four (54) male rats were screened and divided in to nine groups. For a comparative analysis, groups were divided as sham control (Group 1), disease control (Group 2), treatment groups with individual components (Group 3, Group 4, Group 5 and Group 6 as PEA, Cholecalciferol, Quercetin and Resveratrol respectively), test composition formulation of the present invention (Group 7 and Group 8 as PEA combinations) and reference standard drug (Group 9).
The animals under consideration were examined for a study period of 10 weeks and two-stage surgical procedure for kidney ligation and removal were performed.
Stage one: A ventral midline incision into the abdomen was made to expose the animal's left kidney, and the organ was freed from the surrounding tissue. A piece of suture was placed and ligated around each pole of the kidney at its one-third position. The one-third kidney on each pole was excised beyond the ligatures and the abdominal incision was closed.
Stage two: This procedure was performed 5-7 days after stage one. The animals were placed in ventral recumbancy and an incision was made parallel to the midline. The abdominal cavity was entered and the right kidney was made free from the surrounding tissue. The kidney was gently pulled out from the incision, and the adrenal gland was freed and replaced into the abdominal cavity. The renal blood vessels and the ureter were ligated or cauterized. The kidney was then removed by transecting the vessels and ureter just distal to the ligature or cauterized section. The skin incision was closed with wound clips.
Treatment. All treatment groups were treated on daily basis for 10 weeks after stage two of surgery. After completion of the study at the end of 10th week, each group was analyzed in terms of the evaluating parameters such as blood collection, biochemistry analysis, urine analysis and histopathology of kidney.

For `C=C1CC[C@H](O)C/C1=C/C=C1\CCC[C@]2(C)[C@@H]([C@H](C)CCCC(C)C)CC[C@@H]12` [Cholecalciferol], the “Serum Analysis BUN” value was 75.63 mg/dL, the “Serum Analysis Creatinine” value was 1.40 mg/dL and the “Serum Analysis IL-6” value was 178.45 pg/mL. For the same molecule, the “Urine Analysis Glomerular Filtration Rate” value was 5.65 mL/min/kg, the “% Decreased Creatinine” value was 7.02% and the “% Decreased in BUN” value was 8.05%. For the same molecule, the “% Decreased in IL-6” value was 1.22% and the “% Increased GFR” value was 2.73%.
In the case of `CCCCc1nc(Cl)c(CO)n1Cc1ccc(-c2ccccc2-c2nn[nH]n2)cc1` [Losartan], the “Serum Analysis BUN” value was 52.81 mg/dL, the “Serum Analysis Creatinine” value was 1.22 mg/dL and the “Serum Analysis IL-6” value was 141.67 pg/mL. The “Urine Analysis Glomerular Filtration Rate” value was 6.80 mL/min/kg, the “% Decreased Creatinine” value was 18.98% and the “% Decreased in BUN” value was 35.80%. For the same molecule, the “% Decreased in IL-6” value was 21.58% and the “% Increased GFR” value was 23.64%.
With `CCCCCCCCCCCCCCCC(=O)NCCO` [PEA, Palmitoylethanolamide] the “Serum Analysis BUN” value was 60.98 mg/dL, the “Serum Analysis Creatinine” value was 1.12 mg/dL and the “Serum Analysis IL-6” value was 162.18 pg/mL. For the same molecule, the “Urine Analysis Glomerular Filtration Rate” value was 6.50 mL/min/kg, the “% Decreased Creatinine” value was 25.63% and the “% Decreased in BUN” value was 25.87%. The “% Decreased in IL-6” value was 10.22% and the “% Increased GFR” value was 18.18%.
For `O=c1c(O)c(-c2ccc(O)c(O)c2)oc2cc(O)cc(O)c12` [Quercetin], the “Serum Analysis BUN” value was 76.62 mg/dL, the “Serum Analysis Creatinine” value was 1.44 mg/dL and the “Serum Analysis IL-6” value was 175.15 pg/mL. The “Urine Analysis Glomerular Filtration Rate” value was 5.64 mL/min/kg, the “% Decreased Creatinine” value was 4.02% and the “% Decreased in BUN” value was 6.85%. For the same molecule, the “% Decreased in IL-6” value was 3.04% and the “% Increased GFR” value was 2.55%.
`Oc1ccc(C=Cc2cc(O)cc(O)c2)cc1` [Resveratrol] was tested, and the “Serum Analysis BUN” value was 74.51 mg/dL, the “Serum Analysis Creatinine” value was 1.41 mg/dL and the “Serum Analysis IL-6” value was 174.42 pg/mL. The “Urine Analysis Glomerular Filtration Rate” value was 5.75 mL/min/kg, the “% Decreased Creatinine” value was 6.30% and the “% Decreased in BUN” value was 9.42%. For the same molecule, the “% Decreased in IL-6” value was 3.45% and the “% Increased GFR” value was 4.55%.
